In brackets after ≈: the same amount, converted by molar mass.
Columns and labels:
[1] = pampa, 5 h, 500 µM
Description: (§1) Apparent permeability at 500 uM after 5 hrs by Gastro-intestinal-based PAMPA

physchem [2] = settings: PAMPA
Description: Apparent permeability at 500 uM after 5 hrs by Blood-Brain Barrier-based PAMPA

[3] = Metabolic stability in human liver microsomes assessed as parent compound remaining at 50 uM after 1 hr in presence of NADPH regenerating system by UV/LC-MS analysis; format: ADME, microsome; settings: read-out: Stability
cells [4] = settings: Homo sapiens, U-87 MG, 48 h
Description: Cytotoxicity against human U87 cells assessed as reduction in cell viability after 48 hrs by trypan blue assay

physchem [5] = settings: PAMPA; remark: listed apart in the source
Description: as §1

cells [6] = settings: Homo sapiens, U-87 MG, 24 h
Description: Cytotoxicity against human U87 cells assessed as reduction in cell viability after 24 hrs by trypan blue assay

[7] = Metabolic stability in mouse liver microsomes assessed as unmetabolized compound remaining at 50 uM after 1 hr in presence of NADPH regenerating system by UV/LC-MS analysis; format: ADME, microsome; settings: read-out: Stability
cells [8] = settings: Homo sapiens, U-87 MG, 72 h
Description: Cytotoxicity against human U87 cells assessed as reduction in cell viability after 72 hrs by trypan blue assay

physchem [9] = settings: aqueous
Description: Aqueous solubility of compound at 1 mg after 24 hrs by UV/LC-MS analysis

[10] = Half life in PBS buffer at 100 uM at pH 7.4 by UV/LC-MS analysis; format: physicochemical
[11] = Half life in human plasma by UV/LC-MS analysis; format: ADME, cell-free
[12] = Half life in methanol at 100 uM by UV/LC-MS analysis; format: physicochemical
[13] = Half life in mouse plasma by UV/LC-MS analysis; format: ADME, cell-free
[14] = biological target: Proto-oncogene tyrosine-protein kinase Src (Homo sapiens, UniProt P12931); test: biochemical
Chain of Proto-oncogene tyrosine-protein kinase Src (P12931 2-536 limits assumed): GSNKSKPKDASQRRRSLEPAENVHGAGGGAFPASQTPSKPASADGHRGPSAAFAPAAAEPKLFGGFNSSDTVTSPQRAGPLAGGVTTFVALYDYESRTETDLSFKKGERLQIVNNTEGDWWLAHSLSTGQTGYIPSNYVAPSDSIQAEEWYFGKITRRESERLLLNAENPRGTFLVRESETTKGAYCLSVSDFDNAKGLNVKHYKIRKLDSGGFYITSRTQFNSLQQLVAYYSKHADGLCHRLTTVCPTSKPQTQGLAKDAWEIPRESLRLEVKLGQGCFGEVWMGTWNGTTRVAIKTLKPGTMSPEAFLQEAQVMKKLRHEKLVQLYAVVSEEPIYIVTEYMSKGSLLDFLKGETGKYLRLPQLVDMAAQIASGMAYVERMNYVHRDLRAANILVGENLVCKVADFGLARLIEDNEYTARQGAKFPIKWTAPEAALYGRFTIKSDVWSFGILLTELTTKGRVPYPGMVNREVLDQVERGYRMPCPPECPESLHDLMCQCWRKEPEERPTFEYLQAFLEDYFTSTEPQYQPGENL
Description: Inhibition of human wild type full length N-terminal GST/6His-tagged SRC (M1 to L536 residues) expressed in baculovirus infected Sf9 cells using src peptide as substrate after 5 mins in presence of [gamma-32P]ATP by scintillation counting method

[15] = biological target: Tyrosine-protein kinase ABL1 (Homo sapiens, UniProt P00519)
Chain of Tyrosine-protein kinase ABL1 (P00519 whole entry): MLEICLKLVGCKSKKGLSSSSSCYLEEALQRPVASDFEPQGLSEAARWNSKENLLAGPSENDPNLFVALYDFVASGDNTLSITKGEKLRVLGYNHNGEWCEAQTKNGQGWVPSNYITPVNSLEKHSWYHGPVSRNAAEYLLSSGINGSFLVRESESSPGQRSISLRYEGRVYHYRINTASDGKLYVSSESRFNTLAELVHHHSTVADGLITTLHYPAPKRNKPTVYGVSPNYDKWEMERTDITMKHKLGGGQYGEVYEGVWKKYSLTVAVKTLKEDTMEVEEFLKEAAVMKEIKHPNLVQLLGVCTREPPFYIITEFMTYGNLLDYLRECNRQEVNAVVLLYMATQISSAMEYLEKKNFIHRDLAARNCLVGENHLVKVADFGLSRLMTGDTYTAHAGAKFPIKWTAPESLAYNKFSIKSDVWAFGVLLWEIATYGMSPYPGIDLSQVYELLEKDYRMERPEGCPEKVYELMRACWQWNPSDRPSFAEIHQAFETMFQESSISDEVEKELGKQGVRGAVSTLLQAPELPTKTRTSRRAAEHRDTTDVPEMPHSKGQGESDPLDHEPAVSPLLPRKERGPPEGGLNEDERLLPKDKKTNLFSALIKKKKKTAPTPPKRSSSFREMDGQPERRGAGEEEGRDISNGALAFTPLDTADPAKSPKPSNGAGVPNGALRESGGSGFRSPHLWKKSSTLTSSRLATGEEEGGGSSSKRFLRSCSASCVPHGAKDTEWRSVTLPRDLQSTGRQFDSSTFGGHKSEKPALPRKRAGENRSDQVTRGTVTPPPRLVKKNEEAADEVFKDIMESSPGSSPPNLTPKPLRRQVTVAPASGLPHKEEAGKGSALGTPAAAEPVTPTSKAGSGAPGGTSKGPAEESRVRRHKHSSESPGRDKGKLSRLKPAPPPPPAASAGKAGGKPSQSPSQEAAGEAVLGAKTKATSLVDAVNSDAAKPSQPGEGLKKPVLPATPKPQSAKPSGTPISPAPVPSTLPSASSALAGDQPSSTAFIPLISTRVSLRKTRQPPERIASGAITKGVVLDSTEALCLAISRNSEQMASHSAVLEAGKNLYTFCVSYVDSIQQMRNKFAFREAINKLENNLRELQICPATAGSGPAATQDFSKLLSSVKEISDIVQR
Description: Inhibition of human wild type full length N-terminal GST/6His-tagged ABL (P118 to S535 residues) expressed in Sf9 cells using abltide as substrate after 5 mins in presence of [gamma-32P]ATP by scintillation counting

[16] = Prodrug activation in human U87 cells assessed as N-(3-bromophenyl)-6-(methylthio)-1-(2-phenylpropyl)-1H-pyrazolo[3,4-d]pyrimidin-4-amine formation at 20 uM up to 25 hrs by UV/LC-MS analysis; format: cell-based; settings: u-87mg atcc
[17] = Drug uptake in cytoplasm of human U87 cells at 20 uM after 5 hrs by UV/LC-MS analysis; format: ADME
[18] = Drug uptake in cytoplasm of human U87 cells at 20 uM after 2 hrs by UV/LC-MS analysis; format: ADME
[19] = Drug uptake in cytoplasm of human U87 cells at 20 uM after 7 hrs by UV/LC-MS analysis; format: ADME

Compound	Papp [1] [×10⁻⁶ cm/s]	Papp at 5 h, 500 µM (physchem [2]) [×10⁻⁶ cm/s]	remaining at 1 h, 50 µM [3] [%]	IC50 (cells [4]) [µM]	Papp at 5 h, 500 µM (physchem [5]) [×10⁻⁶ cm/s]	IC50 (cells [6]) [µM]	remaining at 1 h, 50 µM [7] [%]	IC50 (cells [8]) [µM]	solubility at 24 h (physchem [9]) [µg/mL]	half-life at 100 µM [10] [h]	half-life [11] [h]	half-life at 100 µM [12] [h]	half-life [13] [h]	Ki [14] [µM]	Ki [15] [µM]	Drug metabolism [16]	Drug uptake [17]	Drug uptake [18]	Drug uptake [19]
CSc1nc(Nc2cccc(Cl)c2)c2cnn(CCc3ccccc3)c2n1	0.25	1.48	99	–	–	–	–	–	–	–	–	–	–	–	–	–	–	–	–
CSc1nc(Nc2cccc(Br)c2)c2cnn(CC(C)c3ccccc3)c2n1 (stereo unspecified)	–	0.5	–	2.3	0.01	16.2	94.2	1.5	0.01 (≈ 0.022 µM)	–	–	–	–	–	–	–	–	–	–
ClC(Cn1ncc2c(Nc3ccccc3)ncnc21)c1ccc(Br)cc1 (stereo unspecified)	–	–	96.4	17.3	–	25.3	–	14	0.06 (≈ 0.14 µM)	–	–	–	–	–	–	–	–	–	–
Clc1ccccc1CNc1ncnc2c1cnn2CC(Cl)c1ccc(Br)cc1 (stereo unspecified)	–	13.2	95.2	–	–	–	–	–	< 0.01	–	–	–	–	–	–	–	–	–	–
CCCCN(C(=O)OCCN1CCN(C)CC1)c1nc(SCC)nc2c1cnn2CC(Cl)c1ccccc1 (stereo unspecified)	–	–	–	–	–	–	–	–	–	1	0.46	2	–	–	–	–	–	–	–
CSc1nc(N(C(=O)OCCN2CCN(C)CC2)c2cccc(Br)c2)c2cnn(CC(C)c3ccccc3)c2n1 (stereo unspecified)	–	1.89	–	2.2	–	7.3	93.3	1.57	6.47 (≈ 10.4 µM)	> 48	–	> 48	2	> 100	> 100	Metabolite_Detected	Active	Active	–
CSc1nc(NCCc2ccccc2)c2cnn(CC(Cl)c3ccccc3)c2n1 (stereo unspecified)	–	6.17	96.2	–	7.4	–	–	–	0.07 (≈ 0.165 µM)	–	–	–	–	–	–	–	–	–	–
CSc1nc(Nc2cccc(Cl)c2)c2cnn(CC(Cl)c3ccccc3)c2n1 (stereo unspecified)	0.26	3.14	91.1	17.2	–	21.8	–	12.5	0.13 (≈ 0.302 µM)	–	–	–	–	0.72	–	–	–	–	–
CSc1nc(N(C(=O)OCCN2CCN(C)CC2)c2cccc(Cl)c2)c2cnn(CCc3ccccc3)c2n1	–	4.3	–	–	4.69	–	–	–	6.32 (≈ 11.2 µM)	> 48	3.13	> 48	–	–	–	–	–	–	–
CSc1nc(N(C(=O)OC(Cc2ccccc2)CN2CCN(C)CC2)c2cccc(Br)c2)c2cnn(CC(C)c3ccccc3)c2n1 (stereo unspecified)	–	1.01	–	2.45	2.32	6.7	–	1.69	0.99 (≈ 1.39 µM)	> 48	40	> 48	–	> 100	> 100	Metabolite_Detected	–	–	Active
CN1CCN(CCOC(=O)N(Cc2ccccc2)c2ncnc3c2cnn3CC(Cl)c2ccccc2)CC1 (stereo unspecified)	–	5.01	86.4	15.2	6.7	18.6	–	15	18.8 (≈ 35.2 µM)	> 48	64.4	> 48	–	–	–	–	–	–	–
CCC(CN1CCN(C)CC1)OC(=O)N(c1cccc(Br)c1)c1nc(SC)nc2c1cnn2CC(C)c1ccccc1 (stereo unspecified)	–	0.93	–	6.4	1.45	7.7	–	2	1.96 (≈ 3 µM)	> 48	11.3	> 48	–	–	–	–	–	–	–
CN1CCN(CCOC(=O)N(c2ccccc2)c2ncnc3c2cnn3CC(Cl)c2ccc(Br)cc2)CC1 (stereo unspecified)	–	6.97	–	5.1	9.91	8.2	–	2	41.6 (≈ 69.4 µM)	> 48	5.68	> 48	–	–	–	–	–	–	–
CSc1nc(N(C(=O)OC(C)CN2CCN(C)CC2)c2cccc(Br)c2)c2cnn(CC(C)c3ccccc3)c2n1 (stereo unspecified)	–	2.39	–	4.5	2.15	7.4	–	1.8	3.4 (≈ 5.32 µM)	> 48	–	> 48	–	> 100	> 100	Metabolite_Detected	–	–	Active
CSc1nc(N(C(=O)OCCN2CCN(C)CC2)c2cccc(Cl)c2)c2cnn(CC(Cl)c3ccccc3)c2n1 (stereo unspecified)	–	4.14	–	7.9	4.95	11.5	–	2.54	4.22 (≈ 7.03 µM)	> 48	3.71	> 48	–	–	–	–	–	–	–
CSc1nc(N(C(=O)OC(CN2CCN(C)CC2)c2ccccc2)c2cccc(Br)c2)c2cnn(CC(C)c3ccccc3)c2n1 (stereo unspecified)	–	–	–	–	–	–	–	–	–	< 0.25	–	< 0.25	–	–	–	–	–	–	–
CN1CCN(CCOC(=O)N(Cc2ccccc2Cl)c2ncnc3c2cnn3CC(Cl)c2ccc(Br)cc2)CC1 (stereo unspecified)	–	1.92	–	–	2.38	–	–	–	1.95 (≈ 3.01 µM)	> 48	75	> 48	–	–	–	–	–	–	–
CSc1nc(N(CCc2ccccc2)C(=O)OCCN2CCN(C)CC2)c2cnn(CC(Cl)c3ccccc3)c2n1 (stereo unspecified)	–	0.01	–	–	0.85	–	–	–	107 (≈ 180 µM)	> 48	45.2	> 48	–	–	–	–	–	–	–
ClC(Cn1ncc2c(NCc3ccccc3)ncnc21)c1ccccc1 (stereo unspecified)	–	–	78.3	4.9	–	14.6	–	2.9	0.7 (≈ 1.92 µM)	–	–	–	–	–	–	–	–	–	–
CCCCNc1nc(SCC)nc2c1cnn2CC(Cl)c1ccccc1 (stereo unspecified)	–	9.99	–	–	–	–	–	–	0.05 (≈ 0.128 µM)	–	–	–	–	–	–	–	–	–	–
